This passage reports melting point results from a melting point compilation (Tetko et al.; mined from patent text by program, amines drawn as free bases though some values may be those of a salt).

A word on the melting point: it is the temperature of the solid-liquid transition.

SMILES strings stand for the structures. Some results are limits rather than exact numbers.

As to `Cc1nc(N2CCN(Cc3cccnc3)C2=O)sc1C(=O)NCc1ccccc1`, the melting point is 110 to 113 °C.

As for `Cc1cc(Cl)ccc1N=c1scc(-c2ccc(Cl)c(S(=O)(=O)N(C)C)c2)n1C`, the melting point lay within 137 to 141 °C.

`Cc1nnc2ccc(-c3cccc(C(F)(F)F)c3)nn12` displayed a melting point of 193 to 194 °C.

`CCCS(=O)(=O)c1ccccc1S(N)(=O)=O`: the melting point lay in the range of 122 to 124 °C.

Compound `O=C(NCc1ccccc1)c1sc2ccccc2c1Br` had a melting point of 115 to 117 °C.

`C1=CC2OC1c1cc3c(cc12)OCO3` gave a melting point of 111 to 112 °C.

With `Cc1[nH]c(-c2ccccc2)c(N)c1C(=O)c1ccccc1`, the melting point lay within 203 to 205 °C.

`COc1cc2cc3ncc(C#N)c(Cl)c3cc2cc1OC`: the melting point was more than 265 °C.

The compound `Cc1c(O)c(C)c(Br)c(C)c1Br` had a melting point of 144 to 146 °C.

For the compound `COc1ccc2c(c1)c(Cc1cc(=O)n(-c3ccc(C(F)(F)F)cc3)[nH]1)c(C)n2C(=O)c1ccc(C#N)cc1`, the melting point is 92 to 94 °C.

The compound `CC(C)C[C@H](NC(=O)OCc1ccccc1)C(=O)N[C@@H](Cc1cccs1)C(=O)CSCc1ccco1` displayed a melting point of 106 to 107 °C.

Compound `CCn1c2ccccc2c2c3c(c(-c4ccccc4Cl)cc21)C(=O)NC3O` (stereo not drawn) displayed a melting point of 225 to 228 °C.

In turn, `Cn1c(-c2cccs2)nnc1S(C)(=O)=O` registered a melting point of 157 to 159 °C.

Compound `CCN(CC)CCNC(=O)c1cc(Cl)c(N)cc1OCCCCSC` registered a melting point of 101 to 103 °C.

`CCCCCCCCCCCCCCOc1ccc(CC(=O)Cl)cc1` returned a melting point of 78 to 80 °C.

`CCOC(=O)C1=C(COCCNCC(=O)OC)NC(C)=C(C(=O)OC)C1c1cccc(Cl)c1Cl` (stereo not drawn) showed a melting point of 96 to 98 °C.

In the case of `NC(=O)c1ccccc1OCC1CC1`, the melting point lay within 102 to 105 °C.

`O=c1c2c[nH]c3ccccc3c-2nn1-c1ccccc1` came in with a melting point of 326 to 328 °C.

Compound `CC(=O)NC[C@H]1CN(c2ccc(N3CCC(n4cc(C(F)F)nn4)CC3)c(F)c2)C(=O)O1` yielded a melting point of 186 to 188 °C.

As for `Nc1ccc(CCN2CCN(c3ccc(N)cc3)CC2)cc1`, the melting point fell in the range of 156 to 158 °C.

On to `Cc1[nH]cnc1CSCCCN=C(NC#N)NCCc1c[nH]cn1`, for which the melting point is 135 to 137 °C.

Turning to `CCCCc1nc(C)c(CC(=S)N(C)C)c(=O)n1Cc1ccc(-c2ccccc2-c2nnn[nH]2)cc1`, the melting point lay in the range of 96.8 to 102 °C.

`CC1(C)C=C(C#Cc2ccccn2)CC(C)(C)C1`: the melting point was 55 to 56 °C.

In turn, `COc1cccc(C2CCCN(C(=O)N(C)O)C2)c1` (stereo not drawn) showed a melting point of 96 to 98 °C.

Consider `CCOC(=O)C1=CC(C(=O)c2cc(C)ccc2O)=CN2CCc3c([nH]c4ccccc34)C12C(=O)OCC` (stereo not drawn), for which the melting point was found to be 208 °C.

In turn, `CCNCC1CCN(c2c(F)cc3c(=O)c(C(=O)O)cn(C4CCC4)c3c2F)C1` (stereo not drawn) returned a melting point of 223 to 225 °C.

As to `COc1cc2c(Nc3cccc(Cl)c3F)ncnc2cc1OC1CCN(C(=O)C(C)(C)CO)CC1`, the melting point lay in the range of 111 to 115 °C.

Regarding `O=C1CCc2cc(Oc3ccccc3)ccc21`, the melting point was 92 to 93 °C.

Take `CC(C)(C)c1cc(CCC(=O)OC2CC(C)(C)N(OC3CCCCC3)C(C)(C)C2)cc(-n2nc3ccc(Cl)cc3n2)c1O`: the melting point was in the range of 130 to 136 °C.

As to `N#Cc1c(F)ccc(O)c1F`, the melting point was in the range of 119 to 121 °C.

In turn, `Cc1nnc(NCCCOc2cccc(CN3CCCCC3)c2)n1C` came in with a melting point of 143 to 144 °C.

Regarding `CC(C(=O)NO)C(=O)N(c1ccccc1)c1ccccc1` (stereo not drawn), the melting point was in the range of 171 to 172 °C.

`COc1ccc(-c2nc(S(=O)(=O)c3ccc(C)cc3)n(Cc3ccccc3)c2-c2ccc(OC)cc2)cc1`: the melting point fell in the range of 154 to 156 °C.

For the compound `COc1cc(C(C)=NO)ccc1OCCCN1CCC(c2noc3cc(F)ccc23)CC1`, the melting point lay within 168 to 170 °C.

For `CCNCC1CN(c2c(F)cc3c(=O)c(C(=O)O)cn(C4CC4)c3c2F)CCO1` (stereo not drawn), the melting point fell in the range of 210 to 213 °C.

For `CP(C)(=O)CNc1cc(Oc2ccc(C(F)(F)F)cn2)ccc1[N+](=O)[O-]`, the melting point was in the range of 158 to 160 °C.

The compound `C#Cc1c(-c2ccc(F)cc2)cc(C(c2ccccc2)c2ccccc2)nc1C(C)C` gave a melting point of 106 to 108 °C.

Turning to `CCOC(=O)c1ncn2cc(Br)sc12`, the melting point fell in the range of 171 to 172 °C.

With `COc1ccc(S(=O)(=O)N2C(=O)C(N)(c3ccccc3Cl)c3cc(Cl)ccc32)c([N+](=O)[O-])c1` (stereo not drawn), the melting point is 192 to 195 °C.

In the case of `CC1OC(=O)C(c2ccccc2)OC1=O` (stereo not drawn), the melting point fell in the range of 153 to 156 °C.

Turning to `Cc1ccc2c(c1)N=C(N1CCC(C)CC1)c1cccc3c1N2CC3`, the melting point lay within 194 to 196 °C.

Regarding `CCCCCCCCCCCCn1nnc(CCC(=O)Nc2c(OC)cc(OC)cc2OC)n1`, the melting point was 86 to 88 °C.

As for `Nc1ccc(-c2cnn3c(O)ncnc23)cc1`, the melting point was more than 300 °C.

The compound `O=C(O)C(Cc1ccccc1)NC(=S)Cc1cccc2ccccc12` (stereo not drawn) gave a melting point of 130 to 132 °C.

The compound `CCC1(C2CCCC2)Cc2cc(OC)c(Cl)c(Cl)c2C1=O` (stereo not drawn) yielded a melting point of 163 °C.

On to `COc1ccc(S(=O)(=O)Nc2cnccc2Nc2ccccc2)cc1`, for which the melting point is 201 to 202 °C.

Turning to `COc1cc(Nc2c(C#N)cnc3cc(/C=C/CCCCN4CCOCC4)c(OC)cc23)c(Cl)cc1Cl`, the melting point was 99 to 100 °C.

Take `CN1CCNC(c2ccccc2)c2cc(Cl)ccc21` (stereo not drawn): the melting point lay within 66 to 68 °C.

Take `O=C(Cn1nc(Cl)nc1Cl)N1CCC(c2nc(C3=NOC(c4c(F)cccc4F)C3)cs2)CC1` (stereo not drawn): the melting point was in the range of 147 to 150 °C.

As to `C(#Cc1ccc2[nH]ccc2c1)CCN1CC=C(c2ccccc2)CC1`, the melting point lay within 173 to 174 °C.

`CCCCNC(=O)NS(=O)(=O)c1ccc(CCNC(=O)N2CC(C)=CC2=O)cc1` displayed a melting point of 189 to 191 °C.

Compound `O=C(Nc1ccc2nc(CN3CCCC3)ccc2c1)c1ccc(N2CCCCC2=O)cc1` gave a melting point of 210 to 212 °C.

Compound `CC(C)NC1=NS(=O)(=O)c2cc([N+](=O)[O-])ccc2N1` had a melting point of 311 to 313 °C.

In turn, `Oc1cc(Cl)nc(Cl)c1` had a melting point of 201 to 202 °C.

Take `FC(F)COc1cc(NC2=NCC3(CN4CCC3CC4)O2)ncn1` (stereo not drawn): the melting point lay in the range of 83 to 88 °C.

Regarding `CCC1C(=O)N(CC)CCc2cc(Nc3ncc(Cl)c(N[C@@H]4CCCC[C@H]4NS(C)(=O)=O)n3)c(OC)cc21` (stereo partly drawn), the melting point fell in the range of 126 to 127 °C.

`Cc1ccc(C(O)(c2ccc(C)cc2)C2CCNCC2)cc1` showed a melting point of 150 to 153 °C.

Compound `O=C(O)c1cn(-c2ccc(F)cc2F)c2cc(Cl)c(F)c(Cl)c2c1=O` gave a melting point of 244 to 246 °C.

Turning to `CCCCCCCCCCCCCCCCCCOc1cc(OCc2ccccc2)cc(N(CC(=O)OC)CC(=O)OC)c1`, the melting point lay in the range of 66 to 68 °C.

As for `O=C(N[C@H](Cc1ccc(C(F)(F)F)cc1)[C@@H](O)c1cccc(Oc2ccccc2)c1)c1ccc(F)c2ccccc12` (racemic), the melting point was in the range of 184 to 185 °C.

Compound `CN(C)CCCC(=O)N1CCOc2cc3ncc(C#N)c(Nc4ccc(F)c(Cl)c4)c3cc21` registered a melting point of 165 °C.

Compound `CC(=O)OC1CC2(C)C(C(C)=O)=CCC2C2CCC3=CC(=O)C=CC3(C)C12F` (stereo not drawn) came in with a melting point of 202 to 203 °C.

Consider `OC(c1ccc(F)cc1)(c1ccc(F)cc1)C1CCNCC1`, for which the melting point is 160 °C.

Turning to `NCc1cccc(OCCC(=O)O)c1`, the melting point was 134 to 138 °C.

The compound `CC(C)(C)OC(=O)Nc1ccc(-c2ccccc2)cc1N` had a melting point of 137 °C.

In turn, `COC1CCC2C3CCC4CC(O)CCC4(C)C3CCC12C` (stereo not drawn) displayed a melting point of 150 to 152 °C.

`Cn1c(-c2ccc(-n3ccnc3)cc2)cnc1[C@H](Cc1ccccn1)N(C=O)c1cc2cccnc2o1`: the melting point was in the range of 108 to 110 °C.

For `CC(=O)C1=CCC2C3CCC4CC=CCC4(C)C3C(=O)CC12C` (stereo not drawn), the melting point is 176 to 177 °C.

`CCC(C(=O)NC)n1nnc2ccccc21` (stereo not drawn) showed a melting point of 136 to 137 °C.

Take `CCOC(=O)C1(C(=O)Nc2ccc(C(F)(F)F)cc2)CC1`: the melting point fell in the range of 80.5 to 82 °C.

As to `CON1C=C2N=NC3=C(N2C1)N(c1ccccc1)CC(C)=C3`, the melting point was 214 to 217 °C.

On to `CCNC(=O)c1ccc(F)c2c1CC(N(CCCc1c[nH]c3ccc(F)cc13)C1CCC1)CO2` (stereo not drawn), for which the melting point is 130 °C.

Compound `O=C1c2c(O)ccc(O)c2C(=O)c2c(NCCN=Cc3ccccc3)ccc(NCCN=Cc3ccccc3)c21` had a melting point of 174 to 179 °C.

`CC(=O)c1ccc2c(c1)CCC(=O)CO2`: the melting point was 80 to 82 °C.

For the compound `Cc1cccc(N=c2scc(-c3ccc(Cl)c(S(=O)(=O)N(C)C)c3)n2C)c1C`, the melting point is 226 °C.

`Nc1ncc2ncnc(Nc3ccc(F)c(Cl)c3)c2n1` had a melting point of 300 to 301 °C.

Take `CCCn1nnn(-c2cc(OS(C)(=O)=O)c(Cl)cc2Cl)c1=O`: the melting point lay in the range of 64 to 65 °C.

For the compound `COCCOc1ccc(/C=C/C(=O)NS(=O)(=O)c2ccc(C(F)(F)F)cc2)c(Oc2ncc(C(F)(F)F)cc2Cl)c1`, the melting point was determined as 186 °C.

In turn, `CCC1Nc2cc(F)ccc2-n2cccc21` (stereo not drawn) registered a melting point of 49 to 51 °C.

`COc1cc(C=O)c(Cl)c(Cl)c1OC` showed a melting point of 120 to 123 °C.

Compound `CC(C(=O)NCc1ccc(C(C)(C)C)cc1)c1ccc(NS(C)(=O)=O)c(C(=O)NCc2ccccc2)c1` (stereo not drawn) had a melting point of 79 to 81 °C.

In the case of `Cc1cc(-n2cc(-c3ccc(F)cc3F)nc2C)cc2ccc(=O)[nH]c12`, the melting point is 262 to 265 °C.

As for `Cc1c(CCC(=O)O)cccc1C(=O)c1ccc(Cl)cc1`, the melting point lay in the range of 144 to 148 °C.

Turning to `CCn1nc(-c2ccccc2)c(C(C)=O)c(Nc2cnccn2)c1=O`, the melting point is 229 to 230 °C.

Take `O=C1c2ccccc2C(Cc2ccncc2)(Cc2ccncc2)C(=O)N1c1ccccc1`: the melting point is more than 270 °C.

`COC(=O)c1cccc2cc(-c3ccccc3)oc12` registered a melting point of 45 to 47 °C.

As to `COC(=O)C(=CC(=CN(C)C)c1ccccc1[N+](=O)[O-])[N+](=O)[O-]`, the melting point lay within 211 to 214 °C.

As to `O=C1CC(Br)C(=O)N1c1ccc(F)cc1` (stereo not drawn), the melting point was found to be 154 °C.
